The target of assay [1] is Porphobilinogen deaminase (Homo sapiens) (UniProt P08397). As to conditions: at 100 µM.
Description: (§1) Compound was evaluated for the inhibition of human HMBS at 100uM
Assay [2] deals with Ferrochelatase, mitochondrial (Homo sapiens) (UniProt P22830). As to conditions: at 10 µM.
Description: (§2) Compound was evaluated for the inhibition of human FECH at 10uM
Assay [3] deals with T1, Porphobilinogen deaminase (Homo sapiens) (UniProt P08397).
T1 sequence (whole entry): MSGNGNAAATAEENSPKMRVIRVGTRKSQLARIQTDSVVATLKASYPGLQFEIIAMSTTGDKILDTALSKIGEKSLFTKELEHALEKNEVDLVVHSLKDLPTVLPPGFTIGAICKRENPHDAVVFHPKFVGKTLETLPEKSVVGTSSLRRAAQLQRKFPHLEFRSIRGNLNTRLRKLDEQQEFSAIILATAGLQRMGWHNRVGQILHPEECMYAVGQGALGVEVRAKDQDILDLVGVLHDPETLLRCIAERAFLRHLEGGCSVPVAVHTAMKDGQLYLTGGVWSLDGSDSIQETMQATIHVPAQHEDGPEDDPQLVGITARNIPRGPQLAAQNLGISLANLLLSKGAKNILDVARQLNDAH
As to conditions: at 100 µM. The source holds these as a separate data set.
Description: as §1

Assay [4] concerns the target T2, Ferrochelatase, mitochondrial (Homo sapiens) (UniProt P22830).
T2 sequence (whole entry): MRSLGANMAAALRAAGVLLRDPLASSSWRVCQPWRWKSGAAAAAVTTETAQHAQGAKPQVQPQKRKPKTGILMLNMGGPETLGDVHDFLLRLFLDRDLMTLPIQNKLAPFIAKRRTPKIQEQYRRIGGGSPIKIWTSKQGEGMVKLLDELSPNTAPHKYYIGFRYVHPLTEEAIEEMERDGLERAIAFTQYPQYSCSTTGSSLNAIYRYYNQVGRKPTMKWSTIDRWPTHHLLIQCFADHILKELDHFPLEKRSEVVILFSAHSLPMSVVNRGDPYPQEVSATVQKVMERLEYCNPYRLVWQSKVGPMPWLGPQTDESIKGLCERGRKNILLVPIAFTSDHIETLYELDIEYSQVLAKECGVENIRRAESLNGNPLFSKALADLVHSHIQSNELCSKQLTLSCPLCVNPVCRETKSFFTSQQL
Particulars: at 10 µM. The source holds these as a separate data set.
Description: as §2

Active and inactive are the calls of the source. How the calls were made is not given here.

Take MMV688978: the inhibition result in assay [1] and in assay [2] was “inactive” in each case.

On to `Cc1nc2ccccn2c1C(=O)NCc1ccc(Cl)cc1`, for which the inhibition result in assay [3] and in assay [4] was “inactive” each time.

With `O=C(c1cc2ccccc2o1)N1CCN(Cc2ccc3c(c2)OCO3)CC1`, the inhibition result in assay [3] and in assay [4] was “inactive” in each case.

On to `Cc1ncc(-c2ccnc(Nc3ccc(S(C)(=O)=O)cc3)n2)n1C(C)C`, for which the inhibition entry in assay [3] and in assay [4] was “inactive” in each case.

Turning to `FC(F)(F)c1cnc(Sc2nnc(-c3ccncc3)o2)c(Cl)c1`, the inhibition entry in assay [3] and in assay [4] was “inactive” throughout.

`C[C@H](C(N)=O)N1CCCC[C@@H]1c1ccc(OCc2cccc(F)c2)cc1`: the inhibition result in assay [3] and in assay [4] was “inactive” each time.

For `O=C(NCc1ccco1)N1CCN(Cc2ccc(Cl)s2)CC1`, the inhibition result in assay [3] and in assay [4] was “inactive” throughout.

For the molecule `CNC(=O)c1nn(C)c2c1C(C)(C)Cc1cnc(Nc3ccc(N4CCN(C)CC4)cc3)nc1-2`, the inhibition entry in assay [3] and in assay [4] was “inactive” each time.

On to `Cc1ccccc1C(=O)N1N=C(Nc2ccccc2)SC1(C)C`, for which the inhibition result in assay [3] and in assay [4] was “inactive” throughout.

As for `O=C(Nc1cccc(Cl)c1)c1cnc(N2CCN(c3ccncc3)CC2)c(Cl)c1`, the inhibition entry in assay [3] and in assay [4] was “inactive” each time.

`CC1CCCCN1C(=O)NCCc1coc(-c2ccc(F)cc2)n1` (configuration not stated): the inhibition result in assay [3] and in assay [4] was “inactive” throughout.

With `FC(F)(F)c1nnc2ccc(Cl)nn12`, the inhibition entry in assay [3] and in assay [4] was “inactive” throughout.

In the case of `CN1CCC(c2cc(-c3ccncc3)c(-c3ccc(F)cc3)[nH]2)CC1`, the inhibition entry in assay [3] and in assay [4] was “inactive” in each case.

As for `Cc1ccc(C(=O)Nc2ccc(S(=O)(=O)O)c3cc(S(=O)(=O)O)cc(S(=O)(=O)O)c23)cc1NC(=O)c1cccc(NC(=O)Nc2cccc(C(=O)Nc3cc(C(=O)Nc4ccc(S(=O)(=O)O)c5cc(S(=O)(=O)O)cc(S(=O)(=O)O)c45)ccc3C)c2)c1`, the inhibition result in assay [3] and in assay [4] was “inactive” in each case.

On to `CO[C@@H]1CN(c2ccc(C#CC3(O)CN4CCC3CC4)c(Cc3ccccc3)n2)C[C@H]1O` (some centres not stated), for which the inhibition result in assay [3] and in assay [4] was “inactive” in each case.

`Cc1ccc2[nH]c3c(NCCN(C)C)ncnc3c2c1`: the inhibition result in assay [3] and in assay [4] was “inactive” each time.

Consider `Nc1ncc(Br)cc1-c1nc2cc(Cl)cnc2[nH]1`, for which the inhibition result in assay [3] and in assay [4] was “inactive” throughout.

Turning to `O=C(NCCc1c[nH]c2ccccc12)c1cc2ccccc2oc1=O`, the inhibition entry in assay [3] and in assay [4] was “inactive” each time.

`O=[N+]([O-])c1cn2c(n1)OC[C@@H](OCc1ccc(OC(F)(F)F)cc1)C2`: the inhibition result in assay [3] and in assay [4] was “inactive” in each case.

Turning to `O=C(NCc1nnc2n1CCCCC2)c1ccc(-c2ccc(F)cc2)o1`, the inhibition result in assay [3] and in assay [4] was “inactive” throughout.

As to `CCn1ncc2c(NC3CCOCC3)c(CNC(=O)c3ccnn3C)c(C)nc21`, the inhibition result in assay [3] and in assay [4] was “inactive” each time.

Take `N=C(N)Nc1ccc(-c2ccc(-c3ccc(NC(=N)N)cc3Cl)o2)c(Cl)c1`: the inhibition entry in assay [3] and in assay [4] was “inactive” in each case.

For `Cc1cnc(N2CCN[C@@H](Cc3ccccc3)C2)nc1Oc1ccc(-n2ccnc2)cc1`, the inhibition entry in assay [3] and in assay [4] was “inactive” each time.

With `CC(=O)NC[C@H]1CN(c2ccc(N3CCSCC3)c(F)c2)C(=O)O1`, the inhibition result in assay [3] and in assay [4] was “inactive” each time.

With `COc1cc(CN2CCC3(C=Cc4ccccc43)CC2)cc2c1OCO2`, the inhibition entry in assay [3] and in assay [4] was “inactive” in each case.

As to `c1ccc2c(c1)CN(CC1CC1)CC1(CCN(Cc3c[nH]c4cnccc34)CC1)O2`, the inhibition entry in assay [3] and in assay [4] was “inactive” each time.

Regarding `Cc1cccc(Cn2ccc(NC(=O)c3ccc4c(c3)OCO4)n2)c1`, the inhibition entry in assay [3] and in assay [4] was “inactive” throughout.

Take `COC(=O)c1c(NC(=O)c2cc3ccccc3oc2=O)sc2c1CCN(Cc1ccccc1)C2`: the inhibition entry in assay [3] and in assay [4] was “inactive” in each case.

Turning to `O[C@@H](c1cc(C(F)(F)F)nc2c(C(F)(F)F)cccc12)[C@H]1CCCCN1`, the inhibition result in assay [3] and in assay [4] was “inactive” in each case.

Consider `CN1CCN(S(=O)(=O)c2ccc(-c3ccc4c(Nc5ccc6nn[nH]c6c5)ccnc4c3)cc2)CC1`, for which the inhibition result in assay [3] and in assay [4] was “inactive” throughout.

Turning to `CS(=O)(=O)N1CCC(CCn2nc(Cc3cccc4ccccc34)c3c(N)ncnc32)CC1`, the inhibition entry in assay [3] and in assay [4] was “inactive” each time.

Values taken from ChEMBL document CHEMBL3987221, “The Australian National University Dept Of Immunology Pathogen Box Compounds Screened” (2018).
